Read-outs that look alike come from different tables or passages of the source.
Legend:
ABL1 = ABL1 (Homo sapiens (Human), UniProt P00519); assay: Caliper Mobility Shift kinase inhibition test; format: biochemical; conditions: 100 nM; read-out: inhibitory rate on ABL1
Method: (§1) The method adopted in the test was Caliper Mobility Shift Assay, which was a detection platform based on the mobility detection technology of microfluidic chip technology. […] Collected data was tested on Caliper to yield that inhibition ratio to kinase activity=(max−conversion)/(max−min)×100. “max” was DMSO control without adding compound, and “min” was low control. When IC50 was determined, each sample was provided with 10 dilutions, each with 2 multiple holes, and repeated for 3 times.

PDGFRα = PDGFRα (Homo sapiens (Human), UniProt P16234); assay: Caliper Mobility Shift kinase inhibition test; format: biochemical; conditions: for inhibition at 0.1 µM: 100 nM
Method: as §1

ALK = ALK (Homo sapiens (Human), UniProt Q9UM73); assay: Caliper Mobility Shift kinase inhibition test; format: biochemical
Method: (§2) The method adopted in the test was Caliper Mobility Shift Assay, which was a detection platform based on the mobility detection technology of microfluidic chip technology. Test steps: 1.25× kinase reaction buffer (62.5 mmol/L HEPES, pH 7.5; 0.001875% Brij-35; 12.5 mmol/L MgCl2; 2.5 mM DTT) and kinase reaction stop solution (100 mmol/L HEPES, pH 7.5; 0.015% Brij-35; 0.2% Coating Reagent #3) were configured. […] Collected data was tested on Caliper to yield that inhibition ratio to kinase activity=(max−conversion)/(max−min)×100. “max” was DMSO control without adding compound, and “min” was low control. When IC50 was determined, each sample was provided with 10 dilutions, each with 2 multiple holes, and repeated for 3 times.

FLT3 = FLT3 (Homo sapiens (Human), UniProt P36888); assay: Caliper Mobility Shift kinase inhibition test; format: biochemical; conditions: 100 nM; read-out: inhibitory rate on FLT3
Method: as §2

IKK β = IKK β (Homo sapiens (Human), UniProt O14920); assay: Caliper Mobility Shift kinase inhibition test; format: biochemical
Method: as §2

BTK = BTK (Homo sapiens (Human), UniProt Q06187); assay: Kinase selectivity test; format: biochemical; conditions: 100 nM
Method: as §2
(§3) According to the above-mentioned method for measuring kinase inhibitory activity, the inhibitory activity of the active compounds on other multiple kinases was measured to characterize the kinase selectivity of active inhibitors.

EGFR = EGFR (Homo sapiens (Human), UniProt P00533); assay: Kinase selectivity test; format: biochemical; conditions: 100 nM
Method: as §2, §3

EGFR L858R = EGFR L858R (Homo sapiens (Human), UniProt P00533, L858R); assay: Kinase selectivity test; format: biochemical; conditions: 100 nM
Method: as §2, §3

EGFR T790M = EGFR T790M (Homo sapiens (Human), UniProt P00533, T790M); assay: Kinase selectivity test; format: biochemical; conditions: 100 nM
Method: as §2, §3

FGFR1 = FGFR1 (Homo sapiens (Human), UniProt P11362); assay: Kinase selectivity test; format: biochemical; conditions: 100 nM
Method: as §2, §3

FGFR3 = FGFR3 (Homo sapiens (Human), UniProt P22607); assay: Kinase selectivity test; format: biochemical; conditions: 100 nM
Method: as §2, §3

KDR = KDR (Homo sapiens (Human), UniProt P35968); assay: Kinase selectivity test; format: biochemical; conditions: 100 nM
Method: as §2, §3

SRC = SRC (Homo sapiens (Human), UniProt P12931); assay: Kinase selectivity test; format: biochemical; conditions: 100 nM
Method: as §2, §3

MG-63 osteosarcoma cells = assay: MTT assay on osteosarcoma cells; format: cell-based; conditions: Homo sapiens, 48 hours, read-out: Inhibitory activity (IC50) MG-63
Method: (§4) Logarithmic osteosarcoma cells were inoculated into a 96-well plate with a cell concentration of 1,500 cell/well for 6 hours by using MTT assay, and each well was filled with 200 μL of cell suspension. […] The samples were cultured in an incubator for 48 hours (37° C., 5% CO2), and 20 v L of MTT (3-(4,5-dimethylthiazole-2)-2,5-diphenyltetrazole) were added into each hole. After continuous culture for 4 hours, the culture solution was discarded by suction, and 200 v L of DMSO were added to each well. […] Calculation method of IC50 value: the IC50 values of the samples were calculated by curve fitting with GraphPad Prism software.

[1] = tested on: MNNG/HOS osteosarcoma cells; assay: MTT assay on osteosarcoma cells; format: cell-based; conditions: 48 hours, read-out: Inhibitory activity (IC50) MNNG/HOS
Method: as §4

[2] = tested on: SAOS-2 osteosarcoma cells; assay: MTT assay on osteosarcoma cells; format: cell-based; conditions: Homo sapiens, 48 hours, read-out: Inhibitory activity (IC50) SAOS-2
Method: as §4

U2OS osteosarcoma cells = assay: MTT assay on osteosarcoma cells; format: cell-based; conditions: Homo sapiens, 48 hours, read-out: Inhibitory activity (IC50) U2OS
Method: as §4

osteosarcoma cells MG63 = assay: Metastasis (scratch migration) test of osteosarcoma cells; format: cell-based; conditions: 0.1, 0.2 and 0.4 uM, compared with positive drugs
Method: (§5) The cells were washed with sterile PBS for three times, and basal medium containing 2.5 μL of TCS was added respectively. Photographs were taken at 0 hour, 24 hours and 48 hours under an inverted microscope, and migration distances were measured with Imag J software.

osteosarcoma cells MNNG = assay: as above; format: cell-based; conditions: 0.1, 0.2 and 0.4 uM, compared with positive drugs
Method: as §5

Sequence of PDGFRα (P16234 24-1089): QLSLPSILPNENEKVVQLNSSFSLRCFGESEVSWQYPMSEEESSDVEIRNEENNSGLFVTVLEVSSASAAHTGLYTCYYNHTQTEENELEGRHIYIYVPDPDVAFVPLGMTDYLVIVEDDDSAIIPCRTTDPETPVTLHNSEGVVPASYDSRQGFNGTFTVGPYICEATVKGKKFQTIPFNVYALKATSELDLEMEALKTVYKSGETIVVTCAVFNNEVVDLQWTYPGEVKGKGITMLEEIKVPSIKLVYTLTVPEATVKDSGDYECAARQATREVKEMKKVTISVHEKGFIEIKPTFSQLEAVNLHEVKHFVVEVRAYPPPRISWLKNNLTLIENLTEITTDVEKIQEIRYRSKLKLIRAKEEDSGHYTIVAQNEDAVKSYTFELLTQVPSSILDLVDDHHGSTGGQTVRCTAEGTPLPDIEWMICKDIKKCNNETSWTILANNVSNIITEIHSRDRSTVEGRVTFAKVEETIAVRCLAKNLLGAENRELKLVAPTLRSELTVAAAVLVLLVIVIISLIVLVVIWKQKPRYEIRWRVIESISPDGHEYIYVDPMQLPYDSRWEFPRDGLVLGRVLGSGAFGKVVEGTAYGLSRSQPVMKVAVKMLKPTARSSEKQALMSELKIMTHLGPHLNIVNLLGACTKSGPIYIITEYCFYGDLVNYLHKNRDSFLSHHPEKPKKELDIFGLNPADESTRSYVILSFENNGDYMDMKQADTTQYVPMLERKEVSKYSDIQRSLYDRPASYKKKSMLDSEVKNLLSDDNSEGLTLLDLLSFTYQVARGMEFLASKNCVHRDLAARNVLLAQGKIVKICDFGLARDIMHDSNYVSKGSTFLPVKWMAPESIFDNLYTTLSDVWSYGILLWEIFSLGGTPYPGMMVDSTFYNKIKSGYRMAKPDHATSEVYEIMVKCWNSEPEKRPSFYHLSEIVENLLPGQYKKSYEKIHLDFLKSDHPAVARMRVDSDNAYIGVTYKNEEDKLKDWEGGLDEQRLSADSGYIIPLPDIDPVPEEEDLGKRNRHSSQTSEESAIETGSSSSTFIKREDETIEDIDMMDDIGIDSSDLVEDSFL
Sequence of FGFR3 (P22607 23-806, species assumed): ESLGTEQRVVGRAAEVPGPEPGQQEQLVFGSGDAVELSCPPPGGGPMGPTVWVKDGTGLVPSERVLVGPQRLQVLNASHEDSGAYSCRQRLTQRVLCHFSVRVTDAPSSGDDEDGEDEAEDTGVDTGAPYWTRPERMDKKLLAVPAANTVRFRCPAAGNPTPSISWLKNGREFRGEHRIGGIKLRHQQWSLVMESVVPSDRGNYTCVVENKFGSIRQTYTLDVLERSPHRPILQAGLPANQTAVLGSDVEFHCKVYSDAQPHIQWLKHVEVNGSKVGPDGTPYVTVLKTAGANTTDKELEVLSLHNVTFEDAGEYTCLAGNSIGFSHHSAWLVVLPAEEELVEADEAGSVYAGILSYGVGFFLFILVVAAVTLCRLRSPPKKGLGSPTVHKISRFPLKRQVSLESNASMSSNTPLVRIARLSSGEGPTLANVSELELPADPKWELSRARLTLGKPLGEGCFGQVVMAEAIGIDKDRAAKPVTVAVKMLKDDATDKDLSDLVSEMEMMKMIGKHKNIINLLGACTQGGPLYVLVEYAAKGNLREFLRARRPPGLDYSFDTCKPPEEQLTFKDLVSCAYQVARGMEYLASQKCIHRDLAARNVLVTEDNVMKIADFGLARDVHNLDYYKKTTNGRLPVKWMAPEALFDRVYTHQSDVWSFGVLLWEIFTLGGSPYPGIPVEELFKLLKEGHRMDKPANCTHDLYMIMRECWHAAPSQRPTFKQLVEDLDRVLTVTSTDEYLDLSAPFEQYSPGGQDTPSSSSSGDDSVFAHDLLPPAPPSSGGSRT
Sequence of SRC (P12931 whole entry, looked up, species assumed): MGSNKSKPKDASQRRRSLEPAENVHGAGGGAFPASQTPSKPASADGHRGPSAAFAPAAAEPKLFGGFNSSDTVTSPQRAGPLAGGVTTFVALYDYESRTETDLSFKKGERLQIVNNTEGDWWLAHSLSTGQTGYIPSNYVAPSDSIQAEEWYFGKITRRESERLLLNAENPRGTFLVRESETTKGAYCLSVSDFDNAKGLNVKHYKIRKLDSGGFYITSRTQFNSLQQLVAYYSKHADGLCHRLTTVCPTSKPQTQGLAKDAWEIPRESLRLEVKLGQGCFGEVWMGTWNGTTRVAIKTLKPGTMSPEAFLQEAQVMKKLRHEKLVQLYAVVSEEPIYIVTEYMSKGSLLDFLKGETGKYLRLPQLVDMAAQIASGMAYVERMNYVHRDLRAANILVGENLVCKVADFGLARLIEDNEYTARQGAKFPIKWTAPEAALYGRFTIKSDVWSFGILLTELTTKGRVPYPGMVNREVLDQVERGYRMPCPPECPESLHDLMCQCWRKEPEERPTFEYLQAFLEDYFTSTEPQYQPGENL
Sequence of FGFR1 (P11362 22-822, species assumed): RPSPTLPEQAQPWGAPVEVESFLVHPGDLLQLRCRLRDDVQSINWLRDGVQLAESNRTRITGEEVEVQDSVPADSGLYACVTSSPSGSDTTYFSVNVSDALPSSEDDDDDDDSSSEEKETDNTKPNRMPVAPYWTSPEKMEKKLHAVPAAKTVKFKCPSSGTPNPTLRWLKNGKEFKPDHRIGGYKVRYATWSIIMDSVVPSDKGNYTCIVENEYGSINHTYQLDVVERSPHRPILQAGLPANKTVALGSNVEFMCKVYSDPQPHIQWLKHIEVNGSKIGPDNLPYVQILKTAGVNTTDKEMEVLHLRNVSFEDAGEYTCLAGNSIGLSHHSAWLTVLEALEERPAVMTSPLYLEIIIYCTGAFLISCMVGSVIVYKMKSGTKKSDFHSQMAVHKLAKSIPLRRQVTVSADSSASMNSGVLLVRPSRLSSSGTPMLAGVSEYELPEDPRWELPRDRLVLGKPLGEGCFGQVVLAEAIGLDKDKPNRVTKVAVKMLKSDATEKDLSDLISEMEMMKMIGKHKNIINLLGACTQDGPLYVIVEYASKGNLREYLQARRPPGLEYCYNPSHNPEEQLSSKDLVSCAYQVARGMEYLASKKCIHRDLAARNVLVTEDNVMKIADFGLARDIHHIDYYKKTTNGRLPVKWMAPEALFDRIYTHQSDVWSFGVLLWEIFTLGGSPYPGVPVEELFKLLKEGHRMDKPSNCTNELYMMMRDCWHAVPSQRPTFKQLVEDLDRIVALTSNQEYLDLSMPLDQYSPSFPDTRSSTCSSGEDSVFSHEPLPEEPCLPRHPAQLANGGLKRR
Sequence of KDR (P35968 20-1356, species assumed): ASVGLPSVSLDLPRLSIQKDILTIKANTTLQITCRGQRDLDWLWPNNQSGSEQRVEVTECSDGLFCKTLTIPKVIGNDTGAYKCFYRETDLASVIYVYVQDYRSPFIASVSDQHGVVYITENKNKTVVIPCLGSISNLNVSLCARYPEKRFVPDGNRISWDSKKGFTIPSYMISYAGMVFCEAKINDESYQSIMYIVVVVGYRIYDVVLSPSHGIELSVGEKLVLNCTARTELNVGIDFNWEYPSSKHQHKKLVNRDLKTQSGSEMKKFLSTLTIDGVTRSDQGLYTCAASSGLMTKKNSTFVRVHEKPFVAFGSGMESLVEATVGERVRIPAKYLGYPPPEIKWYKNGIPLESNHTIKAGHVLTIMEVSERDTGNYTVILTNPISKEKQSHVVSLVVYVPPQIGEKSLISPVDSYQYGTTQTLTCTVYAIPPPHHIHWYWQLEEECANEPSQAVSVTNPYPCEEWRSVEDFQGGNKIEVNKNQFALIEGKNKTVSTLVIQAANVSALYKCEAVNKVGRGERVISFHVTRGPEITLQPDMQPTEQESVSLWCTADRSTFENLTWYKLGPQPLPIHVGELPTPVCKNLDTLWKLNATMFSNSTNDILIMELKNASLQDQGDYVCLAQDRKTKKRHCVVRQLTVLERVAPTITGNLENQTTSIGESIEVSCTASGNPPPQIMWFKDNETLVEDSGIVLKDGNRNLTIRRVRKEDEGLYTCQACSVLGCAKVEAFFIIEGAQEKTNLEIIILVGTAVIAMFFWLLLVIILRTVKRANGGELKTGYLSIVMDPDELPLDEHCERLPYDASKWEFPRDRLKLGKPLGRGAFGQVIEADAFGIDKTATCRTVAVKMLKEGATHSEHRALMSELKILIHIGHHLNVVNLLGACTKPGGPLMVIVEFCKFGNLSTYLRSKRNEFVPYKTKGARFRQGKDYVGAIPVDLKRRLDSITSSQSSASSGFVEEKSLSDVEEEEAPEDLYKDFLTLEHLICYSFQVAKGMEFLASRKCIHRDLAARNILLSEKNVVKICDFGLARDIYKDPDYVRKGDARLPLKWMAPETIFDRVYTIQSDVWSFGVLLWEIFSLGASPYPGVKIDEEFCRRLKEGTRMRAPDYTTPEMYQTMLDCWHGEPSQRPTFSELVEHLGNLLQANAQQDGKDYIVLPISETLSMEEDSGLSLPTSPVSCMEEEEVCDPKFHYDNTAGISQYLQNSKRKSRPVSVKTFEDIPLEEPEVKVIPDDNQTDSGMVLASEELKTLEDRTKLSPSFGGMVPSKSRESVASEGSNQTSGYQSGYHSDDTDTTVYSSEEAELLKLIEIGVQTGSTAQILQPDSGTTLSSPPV

inhibition at 0.1 µM (ABL1): 95.3%
inhibitory activity on PDGFRα (in words) (PDGFRα): significant inhibitory activities
inhibition at 0.1 µM (PDGFRα; average, read-out: Average % inhibition PDGFR α): > 100%
inhibition at 0.1 µM (PDGFRα; replicate 1, read-out: % inhibition 1 PDGFR α): 98.9%
inhibition at 0.1 µM (PDGFRα; replicate 2, read-out: % inhibition 2 PDGFR α): 103%
inhibition at 0.1 µM (PDGFRα; read-out: inhibitory rate on PDGFR-α): 97.5%
IC50 (PDGFRα; read-out: IC50 PDGFR-α): 2.7 nM
IC50 (ALK): 5 nM
inhibition at 0.1 µM (FLT3): 98.9%
IC50 (IKK β): 694 nM
inhibition at 0.1 µM (BTK; average, read-out: Average % inhibition BTK): 50.2%
inhibition at 0.1 µM (BTK; replicate 1, read-out: % inhibition 1 BTK): 49.1%
inhibition at 0.1 µM (BTK; replicate 2, read-out: % inhibition 2 BTK): 51.3%
inhibition at 0.1 µM (EGFR; average, read-out: Average % inhibition EGFR): 42.3%
inhibition at 0.1 µM (EGFR; replicate 1, read-out: % inhibition 1 EGFR): 40.9%
inhibition at 0.1 µM (EGFR; replicate 2, read-out: % inhibition 2 EGFR): 43.6%
inhibition at 0.1 µM (EGFR L858R; average, read-out: Average % inhibition EGFR L858R): 62.1%
inhibition at 0.1 µM (EGFR L858R; replicate 1, read-out: % inhibition 1 EGFR L858R): 61.7%
inhibition at 0.1 µM (EGFR L858R; replicate 2, read-out: % inhibition 2 EGFR L858R): 62.6%
inhibition at 0.1 µM (EGFR T790M; average, read-out: Average % inhibition EGFR T790M): 56.9%
inhibition at 0.1 µM (EGFR T790M; replicate 1, read-out: % inhibition 1 EGFR T790M): 57%
inhibition at 0.1 µM (EGFR T790M; replicate 2, read-out: % inhibition 2 EGFR T790M): 56.8%
inhibition at 0.1 µM (FGFR1; average, read-out: Average % inhibition FGFR1): 65.8%
inhibition at 0.1 µM (FGFR1; replicate 1, read-out: % inhibition 1 FGFR1): 65%
inhibition at 0.1 µM (FGFR1; replicate 2, read-out: % inhibition 2 FGFR1): 66.6%
inhibition at 0.1 µM (FGFR3; average, read-out: Average % inhibition FGFR3): 10.9%
inhibition at 0.1 µM (FGFR3; replicate 1, read-out: % inhibition 1 FGFR3): 8.1%
inhibition at 0.1 µM (FGFR3; replicate 2, read-out: % inhibition 2 FGFR3): 13.7%
inhibition at 0.1 µM (KDR; average, read-out: Average % inhibition KDR): 71.4%
inhibition at 0.1 µM (KDR; replicate 1, read-out: % inhibition 1 KDR): 71.5%
inhibition at 0.1 µM (KDR; replicate 2, read-out: % inhibition 2 KDR): 71.3%
inhibition at 0.1 µM (SRC; average, read-out: Average % inhibition SRC): 92.2%
inhibition at 0.1 µM (SRC; replicate 1, read-out: % inhibition 1 SRC): 91%
inhibition at 0.1 µM (SRC; replicate 2, read-out: % inhibition 2 SRC): 93.5%
IC50 (MG-63 osteosarcoma cells): 438 ± 1 nM
IC50 [1]: 1030 ± 80 nM
IC50 [2]: 370 ± 2 nM
IC50 (U2OS osteosarcoma cells): 418 ± 17 nM
SMILES: CCN1CCN(c2ccc(Nc3ncc(C)c(Nc4ccc5cn[nH]c5c4)n3)cc2OC)CC1 [Compound 6i, N^2-(4-(4-ethylpiperazine-1-yl)-3-methoxyphenyl)-N^4-(1H-indazol-6-yl)-5-methylpyrimidine-2,4-diamine]
inhibitory activity on metastasis (osteosarcoma cells MG63): strong dose-dependent inhibitory activity
inhibitory activity on metastasis (osteosarcoma cells MNNG): strong dose-dependent inhibitory activity

— patent US20230312529A1, “PYRIMIDINE SMALL-MOLECULE COMPOUND AND APPLICATION THEREOF” (WENZHOU MEDICAL UNIVERSITY, priority 2021, published 2023)
